Measurements as given in patent EP0491441A1, “Fungicidal isoquinoline derivatives” (SHELL INTERNATIONALE RESEARCH MAATSCHAPPIJ B.V., priority 1990, dated 1992).

Key:
Format in all cases: in vivo
powdery mildew in barley [1] = assay: Residual (R) activity against powdery mildew in barley; conditions: Hordeum vulgare
Method: (§1) In further tests, the residual (R) and curative (C) activities of various compounds against powdery mildew in barley and wheat was determined at various concentrations of the test compounds.

powdery mildew in barley [2] = assay: Curative (C) activity against powdery mildew in barley; conditions: Hordeum vulgare, concentration 100 ppm
Method: as §1

powdery mildew in wheat [3] = assay: Residual (R) activity against powdery mildew in wheat; conditions: Triticum aestivum, concentration 400 ppm
Method: as §1

powdery mildew in wheat [4] = assay: Curative (C) activity against powdery mildew in wheat; conditions: Triticum aestivum, concentration 400 ppm
Method: as §1

Row | SMILES | activity at 400 ppm (powdery mildew in barley [1]; concentration 400 ppm) | activity at 100 ppm (powdery mildew in barley [2]) | activity at 400 ppm (powdery mildew in wheat [3]) | activity at 400 ppm (powdery mildew in wheat [4]) | activity at 100 ppm (powdery mildew in barley [1]; concentration 100 ppm)
1 | CCCOc1cc2c(cc1OCC)CC[N+]([O-])=C2c1ccccc1[N+](=O)[O-] [Example 7, 1-(2-nitrophenyl)-3,4-dihydro-6-ethoxy-7-propoxyisoquinoline-N-oxide] | 75% | 100% | 94% | 23% | 
2 | CCCOc1cc2c(-c3c(Cl)cccc3Cl)[n+]([O-])ccc2cc1OCC [Example 6, 1-(2,6-Dichlorophenyl)-6-ethoxy-7-propoxyisoquinoline N-oxide] |  | 100% | 98.8% | 68.5% | 100%
